Read-outs that look alike come from different tables or passages of the source. Starred links: 1 amine or outer side, 2 acyl side, 3 side chain; linkers in the order of their positions; H or OH if unused. Non-standard residues stand in square brackets, D forms with d. Residues, ends and D or L forms follow the SMILES beside them. Groups on a side chain read outwards from the residue. *: point of attachment. C20 diacid = O=C(O)CCCCCCCCCCCCCCCCCCC(=O)*; C18 diacid = O=C(O)CCCCCCCCCCCCCCCCC(=O)*; γGlu = O=C(O)[C@H](CCC(=O)[*:2])N[*:1]; AEEA = NCCOCCOCC(=O)O; Aib = CC(C)(N)C(=O)O

The record followed here is patent US12679878B2, “CRF2 receptor agonists and their use in therapy” (SANOFI, priority 2020, dated 2026).

One assay concerns the target T1, human CRF2α receptor (Homo sapiens, UniProt Q13324).
T1 construct: expressed in transfected cells; host or cells: TeloHEAC
T1 sequence (Q13324 1-411): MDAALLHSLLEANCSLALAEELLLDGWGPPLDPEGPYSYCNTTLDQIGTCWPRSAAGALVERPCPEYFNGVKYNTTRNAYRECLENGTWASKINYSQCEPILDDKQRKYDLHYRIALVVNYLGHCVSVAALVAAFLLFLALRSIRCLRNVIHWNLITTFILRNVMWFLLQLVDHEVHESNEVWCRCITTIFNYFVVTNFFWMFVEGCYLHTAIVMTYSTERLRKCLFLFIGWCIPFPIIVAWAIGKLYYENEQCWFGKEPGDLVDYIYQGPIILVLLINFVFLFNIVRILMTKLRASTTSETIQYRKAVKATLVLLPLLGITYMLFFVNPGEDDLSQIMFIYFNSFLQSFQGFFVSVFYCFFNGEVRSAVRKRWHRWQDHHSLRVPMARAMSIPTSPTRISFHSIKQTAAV
The assay is described as follows: cAMP agonism at human CRF2 α receptor in TeloHEAC cells (Example 7). The assay is classed as cell-based. The note with it: cAMP HTRF, TeloHEAC cells stably expressing human CRF2 α. An outline of the steps: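 Steps: thaw and wash cells; suspend in 1×HBSS, 20 mM HEPES, 0 or 0.1% HSA, 2 mM IBMX; add compound, 30 min RT; lyse with HTRF reagents, 1 h; read 665/620 nm. EC50 calculated, E% versus 1000 nM UCN2.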
On the technique in general: Time-resolved FRET reads energy transfer from a long-lived donor to a nearby acceptor.

A further assay concerns rat CRF2R α receptor. The assay is described as follows: cAMP agonism at rat CRF2R α receptor in A7R5 rat aortic smooth muscle cells (Example 8). The format is cell-based. To be noted: cAMP HTRF, A7R5 rat aortic smooth muscle cell line, 0% HSA. The procedure:
Cells were grown in a T175 culture flask placed at 37° C. to near confluence in medium (DMEM/10% FBS) and collected in 2 ml vials in cell culture medium containing 10% DMSO in a concentration of 10-50 million cells/ml. Each vial contained 1.8 ml cells. The vials were slowly frozen to −80° C. in isopropanol and then transferred in liquid nitrogen for storage. Prior to use, frozen cells were thawed quickly at 37° C. and washed (5 min at 900 rpm) with 20 ml cell buffer (1×HBSS; 20 mM HEPES; 0% or 0.1% HSA). Cells were resuspended in assay buffer (cell buffer plus 2 mM IBMX) and adjusted to a cell density of 1 million cells/ml. For measurement, 5 μl cells (final […]) and 5 μL of test compound were added to a 384-well plate, followed by incubation for 30 minutes at room temperature.
The CAMP content of cells was determined using a kit from Cisbio Corp. (cat. no. 62AM4PEC) based on HTRF (Homogenous Time Resolved Fluorescence). After addition of HTRF reagents diluted in lysis buffer (kit components), the plates were incubated for 1 h, followed by measurement of the fluorescence ratio at 665/620 nm. The percent activity value (E %) was calculated by setting 1000 nM of urocortin 2 (UCN2) as 100%. The in vitro potency of the compounds was quantified by determining the concentrations that caused 50% activation of maximal response (EC50).
Using the procedure described in Example 7, the activity of the compounds at the rat CRF2R α receptor was assessed. The A7R5 rat aortic smooth muscle cell line was used in this study.

Setting [1] is: 0% HSA, read-out: EC50 [nM], 0% HSA.
Where [2] appears, read: 0.1% HSA, read-out: EC50 [nM], 0.1% HSA.

A word on the EC50: it is the concentration at which the effect is half-maximal. Regarding `CC[C@H](C)[C@H](N)C(=O)N[C@H](C(=O)N[C@@H](CC(C)C)C(=O)N[C@@H](CO)C(=O)N[C@@H](CC(C)C)C(=O)N[C@@H](CC(=O)O)C(=O)N[C@@H](C(=O)N1CCC[C@H]1C(=O)N[C@H](C(=O)N[C@@H](CCCCN)C(=O)N[C@@H](CC(C)C)C(=O)N[C@@H](CCCCNC(=O)COCCOCCNC(=O)COCCOCCNC(=O)CC[C@H](NC(=O)CCCCCCCCCCCCCCCCCCC(=O)O)C(=O)O)C(=O)N[C@@H](CCC(N)=O)C(=O)N[C@H](C(=O)N[C@@H](CC(C)C)C(=O)N[C@@H](CC(C)C)C(=O)N[C@@H](CCCCN)C(=O)N[C@@H](CCC(N)=O)C(=O)N[C@@H](CCC(=O)O)C(=O)N[C@@H](CCCNC(=N)N)C(=O)N[C@@H](CCC(N)=O)C(=O)N[C@@H](CCCCN)C(=O)NC(C)(C)C(=O)N[C@@H](CCC(N)=O)C(=O)N[C@@H](CCCNC(=N)N)C(=O)N[C@@H](CCC(=O)O)C(=O)N[C@@H](CCC(N)=O)C(=O)N[C@@H](C)C(=O)N[C@@H](CCC(=O)O)C(=O)N[C@@H](CCCCN)C(=O)N[C@@H](CC(N)=O)C(=O)N[C@@H](CCCCN)C(=O)N[C@@H](CCC(N)=O)C(=O)N[C@H](C(=O)N[C@@H](CC(C)C)C(=O)N[C@@H](C)C(=O)N[C@@H](CCC(N)=O)C(=O)N[C@H](C(N)=O)C(C)C)[C@@H](C)CC)[C@@H](C)CC)[C@@H](C)CC)C(C)C)C(C)C` [compound 173] (H-IVLSLD[dV]PIKLK([AEEA-AEEA-γGlu-C20 diacid])QILLKQERQK[Aib]QREQAEKNKQILAQV-NH2; N-terminus assumed), the EC50 on human CRF2α receptor (setting [1]) is 0.03 nM; at human CRF2α receptor (setting [2]), 3.49 nM; in the assay with rat CRF2R α receptor it was 0.83 nM.
In the same order, the values of `CC[C@H](C)[C@H](N)C(=O)N[C@H](C(=O)N[C@@H](CC(C)C)C(=O)N[C@@H](CO)C(=O)N[C@@H](CC(C)C)C(=O)N[C@@H](CC(=O)O)C(=O)N[C@@H](C(=O)N1CCC[C@H]1C(=O)N[C@H](C(=O)N[C@@H](CCCCN)C(=O)N[C@@H](CC(C)C)C(=O)N[C@@H](CCCCNC(=O)COCCOCCNC(=O)COCCOCCNC(=O)CC[C@H](NC(=O)CC[C@H](NC(=O)CCCCCCCCCCCCCCCCC(=O)O)C(=O)O)C(=O)O)C(=O)N[C@@H](CCC(N)=O)C(=O)N[C@H](C(=O)N[C@@H](CC(C)C)C(=O)N[C@@H](CC(C)C)C(=O)N[C@@H](CCCCN)C(=O)N[C@@H](CCC(N)=O)C(=O)N[C@@H](C)C(=O)N[C@@H](CCCNC(=N)N)C(=O)N[C@@H](CCC(N)=O)C(=O)N[C@@H](CCCCN)C(=O)NC(C)(C)C(=O)N[C@@H](CCC(N)=O)C(=O)N[C@@H](CCCNC(=N)N)C(=O)N[C@@H](C)C(=O)N[C@@H](CCC(N)=O)C(=O)N[C@@H](C)C(=O)N[C@@H](CCC(=O)O)C(=O)N[C@@H](CCCCN)C(=O)N[C@@H](CC(N)=O)C(=O)N[C@@H](CCCCN)C(=O)N[C@@H](CCCNC(=N)N)C(=O)N[C@H](C(=O)N[C@@H](CC(C)C)C(=O)N[C@@H](CCC(=O)O)C(=O)N[C@@H](CCCNC(=N)N)C(=O)N[C@H](C(N)=O)C(C)C)[C@@H](C)CC)[C@@H](C)CC)[C@@H](C)CC)C(C)C)C(C)C` [compound 174] (H-IVLSLD[dV]PIKLK([AEEA-AEEA-γGlu-γGlu-C18 diacid])QILLKQARQK[Aib]QRAQAEKNKRILERV-NH2; N-terminus assumed) are 0.07 nM, 0.88 nM and 0.42 nM.
In the same order, the values of `CC[C@H](C)[C@H](N)C(=O)N[C@H](C(=O)N[C@@H](CC(C)C)C(=O)N[C@@H](CO)C(=O)N[C@@H](CC(C)C)C(=O)N[C@@H](CC(=O)O)C(=O)N[C@@H](C(=O)N1CCC[C@H]1C(=O)N[C@H](C(=O)N[C@@H](CCCCN)C(=O)N[C@@H](CC(C)C)C(=O)N[C@@H](CCCCNC(=O)CCCCCCCCCCCCCCCCC(=O)O)C(=O)N[C@@H](CCC(N)=O)C(=O)N[C@H](C(=O)N[C@@H](CC(C)C)C(=O)N[C@@H](CC(C)C)C(=O)N[C@@H](CCCCN)C(=O)N[C@@H](CCC(N)=O)C(=O)N[C@@H](CCC(=O)O)C(=O)N[C@@H](CCCNC(=N)N)C(=O)N[C@@H](CCC(N)=O)C(=O)N[C@@H](CCCCN)C(=O)NC(C)(C)C(=O)N[C@@H](CCC(N)=O)C(=O)N[C@@H](CCCNC(=N)N)C(=O)N[C@@H](CCC(=O)O)C(=O)N[C@@H](CCC(N)=O)C(=O)N[C@@H](C)C(=O)N[C@@H](CCC(=O)O)C(=O)N[C@@H](CCCCN)C(=O)N[C@@H](CC(N)=O)C(=O)N[C@@H](CCCCN)C(=O)N[C@@H](CCC(N)=O)C(=O)N[C@H](C(=O)N[C@@H](CC(C)C)C(=O)N[C@@H](C)C(=O)N[C@@H](CCC(N)=O)C(=O)N[C@H](C(N)=O)C(C)C)[C@@H](C)CC)[C@@H](C)CC)[C@@H](C)CC)C(C)C)C(C)C` [compound 182] (H-IVLSLD[dV]PIKLK(C18 diacid)QILLKQERQK[Aib]QREQAEKNKQILAQV-NH2; N-terminus assumed) are 0.03 nM, 3.13 nM and 0.59 nM.
The like results for `CC[C@H](C)[C@H](N)C(=O)N[C@H](C(=O)N[C@@H](CC(C)C)C(=O)N[C@@H](CO)C(=O)N[C@@H](CC(C)C)C(=O)N[C@@H](CC(=O)O)C(=O)N[C@@H](C(=O)N1CCC[C@H]1C(=O)N[C@H](C(=O)N[C@@H](CCCCN)C(=O)N[C@@H](CC(C)C)C(=O)N[C@@H](CCCCNC(=O)CCCCCCCCCCCCCCCCC(=O)O)C(=O)N[C@@H](CCC(N)=O)C(=O)N[C@H](C(=O)N[C@@H](CC(C)C)C(=O)N[C@@H](CC(C)C)C(=O)N[C@@H](CCCCN)C(=O)N[C@@H](CCC(N)=O)C(=O)N[C@@H](C)C(=O)N[C@@H](CCCNC(=N)N)C(=O)N[C@@H](CCC(N)=O)C(=O)N[C@@H](CCCCN)C(=O)NC(C)(C)C(=O)N[C@@H](CCC(N)=O)C(=O)N[C@@H](CCCNC(=N)N)C(=O)N[C@@H](C)C(=O)N[C@@H](CCC(N)=O)C(=O)N[C@@H](C)C(=O)N[C@@H](CCC(=O)O)C(=O)N[C@@H](CCCCN)C(=O)N[C@@H](CC(N)=O)C(=O)N[C@@H](CCCCN)C(=O)N[C@@H](CCCNC(=N)N)C(=O)N[C@H](C(=O)N[C@@H](CC(C)C)C(=O)N[C@@H](CCC(=O)O)C(=O)N[C@@H](CCCNC(=N)N)C(=O)N[C@H](C(N)=O)C(C)C)[C@@H](C)CC)[C@@H](C)CC)[C@@H](C)CC)C(C)C)C(C)C` [compound 183] (H-IVLSLD[dV]PIKLK(C18 diacid)QILLKQARQK[Aib]QRAQAEKNKRILERV-NH2; N-terminus assumed) were, in that order, 0.12 nM, 1.58 nM and 1.12 nM.
Consider `CC[C@H](C)[C@H](N)C(=O)N[C@H](C(=O)N[C@@H](CC(C)C)C(=O)N[C@@H](CO)C(=O)N[C@@H](CC(C)C)C(=O)N[C@@H](CC(=O)O)C(=O)N[C@@H](C(=O)N1CCC[C@H]1C(=O)N[C@H](C(=O)N[C@@H](CCCCN)C(=O)N[C@@H](CC(C)C)C(=O)N[C@@H](CCCCNC(=O)CCCCCCCCCCCCCCCCC(=O)O)C(=O)N[C@@H](CCC(N)=O)C(=O)N[C@H](C(=O)N[C@@H](CC(C)C)C(=O)N[C@@H](CC(C)C)C(=O)N[C@@H](CCCCN)C(=O)N[C@@H](CCC(N)=O)C(=O)N[C@@H](CCC(=O)O)C(=O)N[C@@H](CCCNC(=N)N)C(=O)N[C@@H](CCC(N)=O)C(=O)N[C@@H](CCCCN)C(=O)N[C@@H](CCCCN)C(=O)N[C@@H](CCC(N)=O)C(=O)N[C@@H](CCCNC(=N)N)C(=O)N[C@@H](CCC(N)=O)C(=O)N[C@@H](CCC(N)=O)C(=O)N[C@@H](C)C(=O)N[C@@H](CCC(=O)O)C(=O)N[C@@H](CCCCN)C(=O)N[C@@H](CC(N)=O)C(=O)N[C@@H](CCCCN)C(=O)N[C@@H](CCC(N)=O)C(=O)N[C@H](C(=O)N[C@@H](CC(C)C)C(=O)N[C@@H](C)C(=O)N[C@@H](CCC(N)=O)C(=O)N[C@H](C(N)=O)C(C)C)[C@@H](C)CC)[C@@H](C)CC)[C@@H](C)CC)C(C)C)C(C)C` [compound 184] (H-IVLSLD[dV]PIKLK(C18 diacid)QILLKQERQKKQRQQAEKNKQILAQV-NH2; N-terminus assumed), for which the EC50 came out at 0.05 nM at human CRF2α receptor (setting [1]), 2.83 nM at human CRF2α receptor (setting [2]) and 0.42 nM in the assay with rat CRF2R α receptor.
